Test results published in ChEMBL document CHEMBL3885861, “Open TG-GATES”.

Organism: Rattus norvegicus
Assay: Open TG-GATES - Regimen: Daily Repeat
Assay type: toxicity, organism-based, Sprague-Dawley
Parameters: regimen Daily Repeat, gender Male, age 6 weeks
Conditions: in vivo, po, route gavage; for Bas / Eos / Fbg / Hb / Ht / MCV / Mono / Neu / Plat / RBC / Ret / WBC / MCHC: tissue Blood; for KIDNEY_L / KIDNEY_R / KIDNEY_TOTAL: tissue Kidney; for LIVER: tissue Liver; for ALP / AST / BUN / CRE / DBIL / GLC / IP / K / LDH / Na / PL / RALB / TBIL / TC / TG / TP / gamma-GTP: tissue Plasma
[1] = 60 mg/kg, 72 h, dose level Middle, time 3 day
[2] = 60 mg/kg, […], dose level Middle, time 7 day
[3] = 60 mg/kg, […], dose level Middle, time 14 day
[4] = 60 mg/kg, […], dose level Middle, time 28 day
[5] = 200 mg/kg, 72 h, dose level High, time 3 day
[6] = 200 mg/kg, […], dose level High, time 7 day
[7] = 200 mg/kg, […], dose level High, time 14 day
[8] = 200 mg/kg, […], dose level High, time 28 day

CO[C@H]1/C=C/O[C@@]2(C)Oc3c(C)c(O)c4c(O)c(c(/C=N/N5CCN(C)CC5)c(O)c4c3C2=O)NC(=O)/C(C)=C\C=C\[C@H](C)[C@H](O)[C@@H](C)[C@@H](O)[C@@H](C)[C@H](OC(C)=O)[C@@H]1C [RIFAMPIN]
TERMINAL_BW [1]: 238.2 g
Bas [1]: 0%
Eos [1]: 1%
Fbg [1]: 236.6 mg/dL
Hb [1]: 13.8 g/dL
Ht [1]: 41.4%
MCV [1]: 62.9 fL
Mono [1]: 5.8%
Neu [1]: 7.4%
Plat [1]: 118.3 x10_4/uL
RBC [1]: 658.2 x10_4/ul
Ret [1]: 5.7%
KIDNEY_L [1]: 1 g
KIDNEY_R [1]: 1 g
KIDNEY_TOTAL [1]: 2 g
LIVER [1]: 11.3 g
ALP [1]: 841.6 IU/L
AST [1]: 60.4 IU/L
BUN [1]: 19 mg/dL
CRE [1]: 0.6 mg/dL
DBIL [1]: 0.02 mg/dL
GLC [1]: 189 mg/dL
IP [1]: 9 mg/dL
K [1]: 4.7 meq/L
LDH [1]: 98.8 IU/L
Na [1]: 139.2 meq/L
PL [1]: 135.4 mg/dL
RALB [1]: 3.6 g/dL
TBIL [1]: 0.4 mg/dL
TC [1]: 83 mg/dL
TG [1]: 71 mg/dL
TP [1]: 5.7 g/dL
gamma-GTP [1]: 1 IU/L
TERMINAL_BW [2]: 259.9 g
TERMINAL_BW [3]: 298.5 g
TERMINAL_BW [4]: 379.8 g
Bas [2]: 0%
Eos [2]: 0.6%
Fbg [2]: 239.6 mg/dL
Hb [2]: 14.1 g/dL
Ht [2]: 42.6%
MCV [2]: 62.5 fL
Mono [2]: 5.2%
Neu [2]: 7%
Plat [2]: 107 x10_4/uL
RBC [2]: 683.2 x10_4/ul
Ret [2]: 5.7%
WBC [2]: 130.9 x10_2/uL
Bas [3]: 0%
Eos [3]: 0.6%
Fbg [3]: 226.6 mg/dL
Hb [3]: 15.2 g/dL
Ht [3]: 44.9%
MCHC [3]: 33.8%
MCV [3]: 60.6 fL
Mono [3]: 3.2%
Neu [3]: 3.4%
Plat [3]: 115.2 x10_4/uL
RBC [3]: 742.6 x10_4/ul
Ret [3]: 3.5%
WBC [3]: 161.2 x10_2/uL
Bas [4]: 0%
Eos [4]: 1%
Fbg [4]: 226.4 mg/dL
Hb [4]: 15.2 g/dL
Ht [4]: 44.9%
MCHC [4]: 33.8%
MCV [4]: 55.8 fL
Mono [4]: 3.4%
Neu [4]: 9.6%
Plat [4]: 117.9 x10_4/uL
RBC [4]: 803.6 x10_4/ul
Ret [4]: 2.3%
WBC [4]: 138.4 x10_2/uL
KIDNEY_L [2]: 1.1 g
KIDNEY_R [2]: 1.1 g
KIDNEY_TOTAL [2]: 2.2 g
KIDNEY_L [3]: 1.1 g
KIDNEY_R [3]: 1.2 g
KIDNEY_TOTAL [3]: 2.3 g
KIDNEY_L [4]: 1.3 g
KIDNEY_R [4]: 1.3 g
KIDNEY_TOTAL [4]: 2.7 g
LIVER [2]: 11.6 g
LIVER [3]: 12.9 g
LIVER [4]: 14.8 g
ALP [2]: 813.8 IU/L
AST [2]: 64.6 IU/L
BUN [2]: 16.8 mg/dL
CRE [2]: 0.5 mg/dL
DBIL [2]: 0.032 mg/dL
GLC [2]: 193.6 mg/dL
IP [2]: 8 mg/dL
K [2]: 5 meq/L
LDH [2]: 89.4 IU/L
Na [2]: 139.2 meq/L
PL [2]: 145.4 mg/dL
RALB [2]: 3.9 g/dL
TBIL [2]: 0.3 mg/dL
TC [2]: 80.4 mg/dL
TG [2]: 90.6 mg/dL
TP [2]: 6 g/dL
gamma-GTP [2]: 2.4 IU/L
ALP [3]: 779.4 IU/L
AST [3]: 58.6 IU/L
BUN [3]: 18.2 mg/dL
CRE [3]: 0.5 mg/dL
DBIL [3]: 0.044 mg/dL
GLC [3]: 193.4 mg/dL
IP [3]: 7.7 mg/dL
K [3]: 5.2 meq/L
LDH [3]: 70.8 IU/L
Na [3]: 139.8 meq/L
PL [3]: 160.8 mg/dL
RALB [3]: 3.9 g/dL
TBIL [3]: 0.3 mg/dL
TC [3]: 83.6 mg/dL
TG [3]: 116.6 mg/dL
TP [3]: 6.1 g/dL
gamma-GTP [3]: 1.2 IU/L
ALP [4]: 610.4 IU/L
AST [4]: 55.6 IU/L
BUN [4]: 18.4 mg/dL
CRE [4]: 0.6 mg/dL
DBIL [4]: 0.038 mg/dL
GLC [4]: 185 mg/dL
IP [4]: 7 mg/dL
K [4]: 4.4 meq/L
LDH [4]: 76.2 IU/L
Na [4]: 140.6 meq/L
PL [4]: 159.6 mg/dL
RALB [4]: 4 g/dL
TBIL [4]: 0.3 mg/dL
TC [4]: 81.6 mg/dL
TG [4]: 132 mg/dL
TP [4]: 6.2 g/dL
gamma-GTP [4]: 1.2 IU/L
TERMINAL_BW [5]: 223.8 g
Bas [5]: 0%
Eos [5]: 1%
Fbg [5]: 229 mg/dL
Hb [5]: 14.3 g/dL
Ht [5]: 43.3%
MCHC [5]: 33.1%
MCV [5]: 63.4 fL
Mono [5]: 5%
Neu [5]: 2.6%
Plat [5]: 122.5 x10_4/uL
RBC [5]: 684 x10_4/ul
Ret [5]: 3.9%
WBC [5]: 123.3 x10_2/uL
KIDNEY_L [5]: 1 g
KIDNEY_R [5]: 1 g
KIDNEY_TOTAL [5]: 2.1 g
LIVER [5]: 10.2 g
ALP [5]: 864.8 IU/L
AST [5]: 61.8 IU/L
BUN [5]: 15.8 mg/dL
CRE [5]: 0.5 mg/dL
DBIL [5]: 0.1 mg/dL
GLC [5]: 189 mg/dL
IP [5]: 8.8 mg/dL
K [5]: 5.1 meq/L
LDH [5]: 204.6 IU/L
Na [5]: 138.8 meq/L
PL [5]: 108 mg/dL
RALB [5]: 3.7 g/dL
TBIL [5]: 0.6 mg/dL
TC [5]: 67 mg/dL
TG [5]: 48.2 mg/dL
TP [5]: 6 g/dL
gamma-GTP [5]: 1.2 IU/L
TERMINAL_BW [6]: 249 g
TERMINAL_BW [7]: 298.6 g
TERMINAL_BW [8]: 356.4 g
Bas [6]: 0%
Eos [6]: 0.4%
Fbg [6]: 226.8 mg/dL
Hb [6]: 13.8 g/dL
Ht [6]: 41.1%
MCHC [6]: 33.5%
MCV [6]: 62.9 fL
Mono [6]: 6.4%
Neu [6]: 7.4%
Plat [6]: 106.5 x10_4/uL
RBC [6]: 653.6 x10_4/ul
Ret [6]: 4.7%
WBC [6]: 165.2 x10_2/uL
Bas [7]: 0%
Eos [7]: 0.2%
Fbg [7]: 222.4 mg/dL
Hb [7]: 13.9 g/dL
Ht [7]: 41.2%
MCHC [7]: 33.7%
MCV [7]: 58.7 fL
Mono [7]: 3.4%
Neu [7]: 4.8%
Plat [7]: 114.3 x10_4/uL
RBC [7]: 702.8 x10_4/ul
Ret [7]: 4.2%
WBC [7]: 185.6 x10_2/uL
Bas [8]: 0%
Eos [8]: 0.6%
Fbg [8]: 214.4 mg/dL
Hb [8]: 14 g/dL
Ht [8]: 42.2%
MCHC [8]: 33.1%
MCV [8]: 53.7 fL
Mono [8]: 5.4%
Neu [8]: 8.8%
Plat [8]: 111.8 x10_4/uL
RBC [8]: 786.6 x10_4/ul
Ret [8]: 2.4%
WBC [8]: 116.3 x10_2/uL
KIDNEY_L [6]: 1 g
KIDNEY_R [6]: 1 g
KIDNEY_TOTAL [6]: 2 g
KIDNEY_L [7]: 1.2 g
KIDNEY_R [7]: 1.2 g
KIDNEY_TOTAL [7]: 2.4 g
KIDNEY_L [8]: 1.3 g
KIDNEY_R [8]: 1.3 g
KIDNEY_TOTAL [8]: 2.6 g
LIVER [6]: 12.2 g
LIVER [7]: 13.9 g
LIVER [8]: 16.8 g
ALP [6]: 976.6 IU/L
AST [6]: 62.2 IU/L
BUN [6]: 17.4 mg/dL
CRE [6]: 0.5 mg/dL
DBIL [6]: 0.2 mg/dL
GLC [6]: 181.2 mg/dL
IP [6]: 9 mg/dL
K [6]: 4.9 meq/L
LDH [6]: 158.4 IU/L
Na [6]: 139.8 meq/L
PL [6]: 139.6 mg/dL
RALB [6]: 3.9 g/dL
TBIL [6]: 0.5 mg/dL
TC [6]: 74.8 mg/dL
TG [6]: 75.8 mg/dL
TP [6]: 6.2 g/dL
gamma-GTP [6]: 1.8 IU/L
ALP [7]: 781 IU/L
AST [7]: 60.2 IU/L
CRE [7]: 0.5 mg/dL
DBIL [7]: 0.2 mg/dL
GLC [7]: 182.2 mg/dL
IP [7]: 8.3 mg/dL
K [7]: 4.9 meq/L
LDH [7]: 163.8 IU/L
Na [7]: 140.8 meq/L
PL [7]: 144.8 mg/dL
RALB [7]: 4.1 g/dL
TBIL [7]: 0.4 mg/dL
TC [7]: 82.2 mg/dL
TG [7]: 73 mg/dL
TP [7]: 6.1 g/dL
gamma-GTP [7]: 1.8 IU/L
ALP [8]: 771 IU/L
AST [8]: 54.8 IU/L
BUN [8]: 19.2 mg/dL
CRE [8]: 0.5 mg/dL
DBIL [8]: 0.3 mg/dL
GLC [8]: 185.4 mg/dL
K [8]: 4.4 meq/L
LDH [8]: 160.6 IU/L
Na [8]: 141.2 meq/L
PL [8]: 134 mg/dL
RALB [8]: 4.1 g/dL
TBIL [8]: 0.6 mg/dL
TC [8]: 76 mg/dL
TG [8]: 75.4 mg/dL
TP [8]: 6.3 g/dL
gamma-GTP [8]: 0.8 IU/L
